From patent publication US20240229156A1, “METHODS FOR USING A HYPOMETHYLATING AGENT TO TREAT DISEASES AND DISORDERS BASED ON GENE MUTATION PROFILES” (Celgene Corporation, priority 2021, published 2024)
“And” between values parts separate entries of the source, which are not always exact repeats. Identical values can stand only once.

Assays:
[1] = test system: patients with AML who were in first remission after intensive chemotherapy; test: Phase 3 QUAZAR (CC0486-AML-001) trial of CC-486 maintenance: gene mutation, cytogenetic and MRD status correlated with OS and RFS; assay type: in vivo, human
Experimental: The correlative analyses of gene mutations with clinical indices (overal survival (OS), relapse-free survival (RFS)) were performed in the CC0486-AML-001 study (the QUAZAR® study). […] In this clinical trial, the key enrollment criteria included newly diagnosed de novo or secondary AML patients, with either intermediate or poor risk (based on the 2012 National Comprehensive Cancer Network (NCCN) classification), were 55 years of age or older, who were in complete remission with or without complete blood count recovery. Patients were also those that were not candidates for hematopoietic stem-cell transplantation. See, ClinicalTrials.gov Identifier: NCT01757535, https://clinicaltrials.gov/ct2/show/NCT01757535, the entirety of which is incorporated herein by reference.
The primary end point was overall survival (OS). Secondary end points included relapse-free survival (RFS).
Bone marrow mononuclear cell (BMMC) DNA was isolated from patients at diagnoses (before consideration for study enrollment) and specific gene mutations (NPM1, FLT3 ITD, FLT3 TKD, CEBPA, MLL, P53, cKIT, NRAS) were determined by investigator report or retrospectively identified by central sequencing for available samples. Cytogenetic risk classification was performed according to the 2012 NCCN Guidelines (source: National Comprehensive Cancer Network Clinical Practice Guidelines in Oncology for Acute Myeloid Leukemia; available at https://www.nccn.org/professionals/physician_gls/PDF/aml.pdf); only intermediate- and poor-risk patients were eligible.
At screening (post-IC/C induction chemotherapy/consolidation, when patients achieved complete remission (CR) or CR with incomplete blood count recovery (CRi), gene mutations were identified by targeted next-generation sequencing (ArcherDX VariantPlex Core Myeloid panel; 37 genes, ArcherDX, Boulder, CO) of DNA isolated from BMMCs. Gene mutational analyses and variants reported were based on the sequence coverages of the 37-gene AML panel. Mutation variants were filtered. Karyotypes from post-IC/C bone marrow samples were determined by MLL (Munich Leukemia Laboratory, Munich, Germany). […] defined as three or more cytogenetic abnormalities in the absence of a WHO designated recurring translocation or inversion; i.e., t(8;21)(q22;q22.1); t(9;11)(p21.3;q23.3); inv(3)(q21.3q26.2) or t(3;3)(q21.3;q26.2); t(6;9)(p23;q34.1); t(v;11;q23.3).
When applicable, statistical analyses were performed using Prism Software (v.8.0.0; GraphPad Software, San Diego, CA) or R statistical computing software environment (v3.6.3). OS and RFS were estimated using Kaplan-Meier methods and P values were calculated using the log-rank test. Cox regression analyses were performed to evaluate the association of gene mutation status and treatment arm with OS and RFS. Gene mutation frequencies and landscape were visualized. Correlative analyses including single gene mutation and co-mutational queries were performed with clinical response. All possible pairings between genes and/or cytogenetic alterations were evaluated for tendency to co-occur or for mutual exclusivity; i.e., a pair of alterations occurring together more frequently or rarely than expected by their individual frequencies, as described by Papaemmanuil et al. (N Engl J Med, 2016). 2×2 contingency tables were generated to test putative associations using Fisher's exact tests and adjusted to control for multiple hypothesis testing. Significant differences between groups were assessed using statistical methods listed in the corresponding Figure footnotes. P-values were considered statistically significant at *p≤0.05, **p≤0.01, or ***p≤0.001.

DNA methylation = settings: clinical studies; cited from earlier work

Nc1ncn([C@@H]2O[C@H](CO)C(O)C2O)c(=O)n1 (stereo partly drawn) [CC-486, 4-amino-l-B-D-ribofuranosyl-1,3,5-triazin-2(1H)-one]
median OS ([1]; DNMT3A mutation postIC/C, FIG. 18A, placebo 13.0, p=0.0003): 24.8 months | median RFS ([1]; DNMT3A mutation postIC/C, FIG. 18B, placebo 4.7, p<0.0001): 18.4 months | median OS ([1]; FIG. 6B (RFS figure), NPM1 mutation at diagnosis, placebo 6.9, p=0.0098): 23.2 months | median OS ([1]; FIG. 9B (RFS figure), FLTITD/FLT3-TKD mutation, placebo 4.6, p=0.0475): 23.1 months | median OS ([1]; FIG. 10B (RFS figure), NPM1 mutation and FLTITD WT, placebo 7.8, p=0.0572): 21.1 months | median OS ([1]; FIG. 10F (RFS figure), NPM1 WT and FLTITD mutation, placebo 4.0, p=0.9446): 4.5 months | median OS ([1]; FLTITD/FLT3-TKD mutation NPM1 WT, FIG. 13B, placebo 8.7, p=0.4105): 11.8 months | prolonged RFS, CC-486 vs placebo ([1]; FLTITD/FLT3-TKD mutation NPM1 WT, FIG. 13D): no statistical significance | median OS ([1]; FLTITD/FLT3-TKD mutation at diagnosis, placebo 9.7, p=0.0797): 28.2 months | median RFS ([1]; FLTITD/FLT3-TKD wild type, placebo 4.9, p=0.0009): 10.2 months | median OS ([1]; FLTITD/FLT3-TKD wild type, placebo 15.2, p=0.0123): 24.7 months | median OS ([1]; NPM1 WT and FLTITD mutation, FIG. 10E, placebo 9.7, p=0.9207): 9.2 months | median OS ([1]; NPM1 mutation FLTITD WT, FIG. 10A, placebo 18.0, p=0.0802): 47.1 months | median OS ([1]; NPM1 mutation FLTITD/FLT3-TKD WT, FIG. 13A, placebo 20.2, p=0.0763): 47.1 months | median RFS ([1]; NPM1 mutation FLTITD/FLT3-TKD WT, FIG. 13C, placebo 7.7, p=0.0827): 18.4 months | median OS ([1]; NPM1 mutation FLTITD/FLT3-TKD mutation, FIG. 13A and 13B, placebo 13.4, p=0.0827): 46.1 months | median RFS ([1]; NPM1 mutation FLTITD/FLT3-TKD mutation, FIG. 13C and 13D, placebo 4.9, p=0.0278): 46.1 months | median OS ([1]; NPM1 mutation and FLTITD mutation, FIG. 10C, placebo 11.5, p=0.0488): 49.3 months | median RFS ([1]; NPM1 mutation and FLTITD mutation, FIG. 10D, placebo 4.6, p=0.0368): 10.2 months | median OS ([1]; NPM1 mutation and MRD negative status, FIG. 6C): 47.2 months | median OS ([1]; NPM1 mutation and MRD positive status, FIG. 6C): 32.7 months | median RFS ([1]; NPM1 mutation at diagnosis, FIG. 5C, vs NPM1 wild type p<0.0001): 23.23 months | median OS ([1]; NPM1 mutation at diagnosis, placebo 15.9, p=0.0138, vs NPM1 wild type p=0.0006): 46.09 months and 46.1 months | median OS ([1]; NPM1 wild type and MRD negative, FIG. 6C): 24.6 months | median OS ([1]; NPM1 wild type and MRD positive status, FIG. 6C): 13.8 months | median RFS ([1]; NPM1 wild type at diagnosis, placebo 4.6, p=0.0029): 7.688 months and 7.7 months | median OS ([1]; NPM1 wild type at diagnosis, placebo 14.6, p=0.0365): 19.58 months and 19.6 months | OS, CC-486 versus placebo ([1]; WT DNMT3A postIC/C): No differences | RFS, CC-486 versus placebo ([1]; WT DNMT3A postIC/C): No differences | OS, CC-486 versus placebo ([1]; WT p53 postIC/C): increases | RFS, CC-486 versus placebo ([1]; WT p53 postIC/C): increases | OS, CC-486 versus placebo ([1]; abnormal karyotype (>1 abnormality) postIC/C, FIG. 17C): no statistically significant differences | RFS, CC-486 versus placebo ([1]; abnormal karyotype (>1 abnormality) postIC/C, FIG. 17D): no statistically significant differences | median RFS ([1]; complex karyotype (≥4 abnormalities) postIC/C, vs normal karyotype p<0.0001): 1.906 months | median OS ([1]; complex karyotype (≥4 abnormalities) postIC/C, vs normal karyotype p=0.0003): 6.932 months | median OS ([1]; de novo AML, FIG. 1A, placebo 14.55, p=0.0068): 23.23 months | median RFS ([1]; de novo AML, FIG. 1B, placebo 4.90, p=0.0002): 10.15 months | median RFS ([1]; intermediate cytogenetic risk at diagnosis, placebo 5.8, p=0.0004): 11 months | median OS ([1]; intermediate cytogenetic risk at diagnosis, placebo 16, p=0.0093): 25 months | RFS, CC-486 versus placebo ([1]; mutations in SRSF2 alone postIC/C, FIG. 21A, p=0.0809): trend for improved RFS | median OS ([1]; normal karyotype (no abnormalities) postIC/C, placebo 14.95, p=0.004, vs complex karyotype p=0.0003): 25.10 months and 25.1 months | median RFS ([1]; normal karyotype postIC/C, placebo 4.895, p<0.0001, vs complex karyotype p<0.0001): 10.97 months | median OS ([1]; other patients (lack NPM1 mutation in combination with FLTITD WT), FIG. 10A, placebo 14.6, p=0.0119): 20.2 months | median RFS ([1]; other patients, FIG. 10B, placebo 4.6, p=0.0006): 7.9 months | median OS ([1]; other patients, FIG. 10C, placebo 14.9, p=0.0080): 24.7 months | median RFS ([1]; other patients, FIG. 10D, placebo 4.1, p=0.0008): 10.2 months | median OS ([1]; other patients, FIG. 10E, placebo 14.9, p=0.0020): 25.0 months | median RFS ([1]; other patients, FIG. 10F, placebo 4.9, p<0.0001): 10.2 months | OS, CC-486 versus placebo ([1]; p53 mutation postIC/C, FIG. 18C): no statistically significant differences | median RFS ([1]; p53 mutation postIC/C, FIG. 18D, placebo 3.5, p=0.0579): 7.4 months | differences in median OS or median RFS, normal versus abnormal karyotype ([1]; patients treated with CC-486, abnormal karyotype (1-3 abnormalities), FIG. 16): statistically significant differences | median RFS ([1]; poor cytogenetic risk at diagnosis, placebo 3.7, p=0.0776): 4.6 months | median OS ([1]; poor cytogenetic risk at diagnosis, placebo 7.4, p=0.0602): 14 months | median OS ([1]; secondary AML, FIG. 1A, placebo 15.67, p=0.1072): 28.19 months | median RFS ([1]; secondary AML, FIG. 1B, placebo 2.45, p=0.0118): 4.67 months | demethylative effects as compared to VIDAZA (DNA methylation): more sustainable demethylative effects
